# Assays:
# Test in all cases: relative viability (nuclei count vs DMSO), 5 days (fraction); higher = more cells survive
# [1] = system: CAL-12T
# Summary of the method: (§1)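 Lung cancer cell lines, seeded in 1536-well plates, were treated the following day by pin tool with a single drug or with five library-drug doses (not always all listed) in √10 steps on top of a fixed anchor-drug dose. Cells were fixed and nuclei stained in one step after 5 days, and nuclei were counted. Relative viability is the nuclei count for treated wells divided by that for vehicle wells, reported as medians of duplicate plates.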
# [2] = system: PC-3 [JPC-3]
# Summary of the method: as §1
# [3] = system: RERF-LC-KJ
# Summary of the method: as §1
# [4] = system: NCI-H1651
# Summary of the method: as §1
# [5] = system: NCI-H1395
# Summary of the method: as §1
# [6] = system: NCI-H1755
# Summary of the method: as §1
# [7] = system: NCI-H1793
# Summary of the method: as §1
# [8] = system: LOU-NH91
# Summary of the method: as §1
# [9] = system: NCI-H1944
# Summary of the method: as §1
# [10] = system: ABC-1
# Summary of the method: as §1
# [11] = system: LU99A
# Summary of the method: as §1
# [12] = system: LC-2-ad
# Summary of the method: as §1
# [13] = system: NCI-H2170
# Summary of the method: as §1
# [14] = system: NCI-H2228
# Summary of the method: as §1
# [15] = system: NCI-H3122
# Summary of the method: as §1
# [16] = system: HCC-366
# Summary of the method: as §1
# [17] = system: UMC-11
# Summary of the method: as §1
# [18] = system: NCI-H460
# Summary of the method: as §1
# [19] = system: NCI-H2405
# Summary of the method: as §1
# [20] = system: HCC-78
# Summary of the method: as §1
# [21] = system: NCI-H2087
# Summary of the method: as §1
compound,measurement,setting,value
O=c1cc(-c2cccc3c2Sc2ccccc2S3)oc(N2CCOCC2)c1 + CS(=O)(=O)CCNCc1ccc(-c2ccc3ncnc(Nc4ccc(OCc5cccc(F)c5)c(Cl)c4)c3c2)o1 [Lapatinib] (partner 2 µM),relative viability,[1]; first compound 0.08 µM,0.501
same,relative viability,[1]; first compound 0.253 µM,0.646
same,relative viability,[1]; first compound 0.8 µM,0.595
same,relative viability,[1]; first compound 2.53 µM,0.551
same,relative viability,[1]; first compound 8 µM,0.564
same,relative viability,[2]; first compound 0.08 µM,0.44
same,relative viability,[2]; first compound 0.253 µM,0.497
same,relative viability,[2]; first compound 0.8 µM,0.435
same,relative viability,[2]; first compound 2.53 µM,0.437
same,relative viability,[2]; first compound 8 µM,0.532
same,relative viability,[3]; first compound 0.08 µM,0.836
same,relative viability,[3]; first compound 0.253 µM,0.998
same,relative viability,[3]; first compound 0.8 µM,0.876
same,relative viability,[3]; first compound 2.53 µM,0.907
same,relative viability,[3]; first compound 8 µM,0.98
same,relative viability,[4]; first compound 0.08 µM,0.866
same,relative viability,[4]; first compound 0.253 µM,1.06
same,relative viability,[4]; first compound 0.8 µM,0.711
same,relative viability,[4]; first compound 2.53 µM,0.703
same,relative viability,[4]; first compound 8 µM,0.953
same,relative viability,[5]; first compound 0.08 µM,0.971
same,relative viability,[5]; first compound 0.253 µM,1.04
same,relative viability,[5]; first compound 0.8 µM,1.02
same,relative viability,[5]; first compound 2.53 µM,1.16
same,relative viability,[5]; first compound 8 µM,0.949
same,relative viability,[6]; first compound 0.08 µM,1.09
same,relative viability,[6]; first compound 0.253 µM,1.06
same,relative viability,[6]; first compound 0.8 µM,1.15
same,relative viability,[6]; first compound 2.53 µM,1.03
same,relative viability,[6]; first compound 8 µM,1.08
same,relative viability,[7]; first compound 0.08 µM,0.641
same,relative viability,[7]; first compound 0.253 µM,1.16
same,relative viability,[7]; first compound 0.8 µM,0.643
same,relative viability,[7]; first compound 2.53 µM,0.837
same,relative viability,[7]; first compound 8 µM,0.752
same,relative viability,[8]; first compound 0.08 µM,0.707
same,relative viability,[8]; first compound 0.253 µM,0.803
same,relative viability,[8]; first compound 0.8 µM,0.554
same,relative viability,[8]; first compound 2.53 µM,0.751
same,relative viability,[8]; first compound 8 µM,0.732
same,relative viability,[9]; first compound 0.08 µM,0.846
same,relative viability,[9]; first compound 0.253 µM,1.07
same,relative viability,[9]; first compound 0.8 µM,0.733
same,relative viability,[9]; first compound 8 µM,0.998
same,relative viability,[10]; first compound 0.08 µM,1.04
same,relative viability,[10]; first compound 0.253 µM,1.2
same,relative viability,[10]; first compound 0.8 µM,1.28
same,relative viability,[10]; first compound 2.53 µM,0.991
same,relative viability,[10]; first compound 8 µM,1.41
same,relative viability,[11]; first compound 0.08 µM,1.07
same,relative viability,[11]; first compound 0.253 µM,0.954
same,relative viability,[11]; first compound 0.8 µM,1.49
same,relative viability,[11]; first compound 2.53 µM,1.03
same,relative viability,[11]; first compound 8 µM,1.11
same,relative viability,[12]; first compound 0.08 µM,0.963
same,relative viability,[12]; first compound 0.253 µM,1.04
same,relative viability,[12]; first compound 0.8 µM,1.06
same,relative viability,[12]; first compound 2.53 µM,0.921
same,relative viability,[12]; first compound 8 µM,0.956
same,relative viability,[13]; first compound 0.08 µM,0.258
same,relative viability,[13]; first compound 0.253 µM,0.284
same,relative viability,[13]; first compound 0.8 µM,0.239
same,relative viability,[13]; first compound 2.53 µM,0.271
same,relative viability,[13]; first compound 8 µM,0.308
same,relative viability,[14]; first compound 0.08 µM,1.02
same,relative viability,[14]; first compound 0.253 µM,1.5
same,relative viability,[14]; first compound 0.8 µM,0.912
same,relative viability,[14]; first compound 2.53 µM,0.891
same,relative viability,[14]; first compound 8 µM,1.1
same,relative viability,[15]; first compound 0.08 µM,1.03
same,relative viability,[15]; first compound 0.253 µM,1.15
same,relative viability,[15]; first compound 0.8 µM,1
same,relative viability,[15]; first compound 2.53 µM,0.96
same,relative viability,[15]; first compound 8 µM,1.02
same,relative viability,[16]; first compound 0.08 µM,1.12
same,relative viability,[16]; first compound 0.253 µM,1.71
same,relative viability,[16]; first compound 0.8 µM,1.12
same,relative viability,[16]; first compound 2.53 µM,0.995
same,relative viability,[16]; first compound 8 µM,1.56
same,relative viability,[17]; first compound 0.08 µM,1.02
same,relative viability,[17]; first compound 0.253 µM,1.28
same,relative viability,[17]; first compound 0.8 µM,1.21
same,relative viability,[17]; first compound 2.53 µM,0.78
same,relative viability,[17]; first compound 8 µM,1.29
same,relative viability,[18]; first compound 0.08 µM,1.13
same,relative viability,[18]; first compound 0.253 µM,1.52
same,relative viability,[18]; first compound 0.8 µM,1.22
same,relative viability,[18]; first compound 2.53 µM,0.843
same,relative viability,[18]; first compound 8 µM,1.19
same,relative viability,[19]; first compound 0.08 µM,0.928
same,relative viability,[19]; first compound 0.253 µM,1.1
same,relative viability,[19]; first compound 0.8 µM,1.02
same,relative viability,[19]; first compound 2.53 µM,0.937
same,relative viability,[19]; first compound 8 µM,1.02
same,relative viability,[20]; first compound 0.08 µM,0.873
same,relative viability,[20]; first compound 0.253 µM,0.822
same,relative viability,[20]; first compound 0.8 µM,0.718
same,relative viability,[20]; first compound 2.53 µM,0.735
same,relative viability,[20]; first compound 8 µM,0.901
same,relative viability,[21]; first compound 0.08 µM,0.981
same,relative viability,[21]; first compound 0.253 µM,0.98
same,relative viability,[21]; first compound 0.8 µM,1.13
same,relative viability,[21]; first compound 2.53 µM,0.959
same,relative viability,[21]; first compound 8 µM,1.4

# Reference: the supplement of paper PMC10307832
